The record followed here is patent publication US5008246A, “Novel peptides suppressing the function of the immune system, pharmaceutical compositions containing them and process for preparing same” (Richter Gedeon Vegyeszeti Gyar R. T., priority 1988, dated 1991).

One assay concerns resting macrophages. In words: Effect on the phagocytating capacity of resting macrophages. The assay is classed as in vivo, male NZB (OLAC-SzKB) mice. The note with it: 1 mg/kg s.c. daily for 4 days; count of phagocytated opsonized yeast cells by peritoneal macrophages vs untreated animals. Here is the method:
These examinations were carried out on 6 months old male NZB (OLAC-SzKB) mice according to the method described in J. Immunopharmnacol. 4, 265 (1982-1983). The animals were treated daily with a 1 mg/kg subcutaneous (s.c.) dose of the test substances for 4 days. After bleeding the animals, their peritonea were washed with 8 ml of PBS buffer solution (pH 7.2) each containing 10 IU of heparin. The cell suspension washed out from the peritoneum was made free of the erythrocytes by shocking with distilled water, then washed 3 times with PBS buffer solution. The sedimentation between two washings was achieved by centrifuging at 1000 rpm for 5 minutes. Then, the concentration of each cell suspension was adjusted to 10^6 cell/ml and the suspension was settled for 30 minutes in a Boyden-chamber at 37° C. in an atmosphere containing 5% of carbon dioxide. Over the macrophages adhered to the glass wall, opsonized yeast was layered. After removing the non-phagocytated particles, those incorporated by the macrophages were counted in each cell. In Table 3, the percentage of decrease in the count of the phagocytated yeast cells is given in relation to the macrophages isolated from the untreated animals as control.

In a further assay the test system is contact dermatitis. In words: Inhibition of the contact dermatitis (oxazolone, method of Evans et al.). The assay is classed as in vivo, male BALB/c (LATI) mice. The note with it: oxazolone-sensitized mice, 1.0 mg/kg i.p.; ear weight difference after 24 hours vs physiological saline control. As to the method: These investigations were carried out on male BALB/c (LATI) mice with 20 to 22 g body-weight by using the method of Evans et al. [Br. J. Pharmacol. 43, 403 (1971)]. The abdominal side of the animals were depilated, then the naked abdominal skin of each animal was sensitized by 0.1 ml of the oxazolone solution of 2% in sunflower oil. After 1 week, the mice were i.p. treated with an 1.0 mg/kg dose of the test substance (dissolved in physiological saline solution), then the right ear of the animals was directly treated with 10 μl of an acetone solution containing 2% oxazolone while their left ear was treated with 10 μl of acetone. After 24 hours, their ears were cut off and weighed. The difference between the weight of treated and untreated ears of the animals was compared with the difference observed at the animals treated with the test substance and treated only with physiological saline solution, respectively. The difference in the ear weight was considered to be proportional to the extent of the contact dermatitis, while the value measured at the animals not treated with the test substance was taken as control, the dermatitis-diminishing effect of the test substances was obtained as expressed in percentage shown in Table 4.

Where a SMILES comes first, the peptide text is derived from it. [ ]: non-standard residue; d: D form.

For the molecule `N=C(N)NCCC[C@H](N)C(=O)NCCCC[C@H](N)C(=O)N[C@@H](CC(=O)O)C(=O)O` [Compound 12, Lys(Arg)--Asp] (H-Lys(Arg)-Asp-OH), the “Effect on the phagocytating capacity of resting macrophages %” value in the assay on resting macrophages is -42%. Further, the “Inhibition of the contact dermatitis %” value in the assay with contact dermatitis is -16%.

In the case of `N=C(N)NCCC[C@H](N)C(=O)NCCCC[C@H](N)C(=O)N[C@H](CC(=O)O)C(=O)O` [Compound 13, Lys(Arg)--D--Asp] (H-Lys(Arg)-[dD]-OH), the “Effect on the phagocytating capacity of resting macrophages %” value with resting macrophages is given as -50%.
